Source: ChEMBL document CHEMBL1154343, “Synthesis and biological evaluation of pyrrolopyridazine derivatives as novel HER-2 tyrosine kinase inhibitors” (Bioorg Med Chem Lett, 2009)

Experiments:
[1] = molecular target: T1, Epidermal growth factor receptor (Homo sapiens, UniProt P00533); assay: Inhibition of EGFR by HTRF assay
[2] = molecular target: T2, Receptor tyrosine-protein kinase erbB-2 (Homo sapiens, UniProt P04626); assay: Inhibition of HER2 in human SKBR3 cells by HTRF assay
[3] = molecular target: T1, Epidermal growth factor receptor; assay: Inhibition of EGFR in human A431 cells by HTRF assay
[4] = molecular target: T2, Receptor tyrosine-protein kinase erbB-2; assay: Inhibition of HER2 by HTRF assay

T1 sequence (P00533 whole entry): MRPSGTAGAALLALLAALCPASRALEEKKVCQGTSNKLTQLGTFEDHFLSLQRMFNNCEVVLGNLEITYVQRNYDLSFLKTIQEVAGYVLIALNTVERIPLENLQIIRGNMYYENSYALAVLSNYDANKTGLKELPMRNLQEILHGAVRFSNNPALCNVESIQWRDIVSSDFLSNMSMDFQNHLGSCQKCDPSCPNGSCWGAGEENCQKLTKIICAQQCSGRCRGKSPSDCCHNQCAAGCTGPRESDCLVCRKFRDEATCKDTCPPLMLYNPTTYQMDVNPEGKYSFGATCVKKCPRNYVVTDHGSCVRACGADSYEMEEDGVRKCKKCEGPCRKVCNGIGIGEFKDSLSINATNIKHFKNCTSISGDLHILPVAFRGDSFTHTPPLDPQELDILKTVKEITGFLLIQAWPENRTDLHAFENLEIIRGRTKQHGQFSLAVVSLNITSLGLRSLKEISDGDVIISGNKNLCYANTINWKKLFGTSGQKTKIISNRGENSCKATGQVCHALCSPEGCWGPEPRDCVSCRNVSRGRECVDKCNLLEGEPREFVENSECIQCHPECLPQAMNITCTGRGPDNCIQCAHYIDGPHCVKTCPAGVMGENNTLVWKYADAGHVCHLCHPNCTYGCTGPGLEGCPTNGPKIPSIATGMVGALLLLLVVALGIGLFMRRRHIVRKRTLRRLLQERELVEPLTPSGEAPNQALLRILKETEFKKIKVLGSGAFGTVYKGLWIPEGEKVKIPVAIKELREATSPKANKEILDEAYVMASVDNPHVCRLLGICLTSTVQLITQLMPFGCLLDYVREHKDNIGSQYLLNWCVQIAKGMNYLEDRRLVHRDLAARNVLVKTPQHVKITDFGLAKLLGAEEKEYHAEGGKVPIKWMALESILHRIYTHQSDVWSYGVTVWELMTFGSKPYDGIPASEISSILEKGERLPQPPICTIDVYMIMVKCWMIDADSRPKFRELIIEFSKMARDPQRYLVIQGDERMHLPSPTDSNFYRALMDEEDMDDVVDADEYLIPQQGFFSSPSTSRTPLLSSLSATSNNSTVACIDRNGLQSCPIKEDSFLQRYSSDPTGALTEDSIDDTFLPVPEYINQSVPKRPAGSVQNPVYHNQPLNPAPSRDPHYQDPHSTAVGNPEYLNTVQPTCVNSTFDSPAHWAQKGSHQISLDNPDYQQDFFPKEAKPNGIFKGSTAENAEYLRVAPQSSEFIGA
T2 sequence (P04626 whole entry): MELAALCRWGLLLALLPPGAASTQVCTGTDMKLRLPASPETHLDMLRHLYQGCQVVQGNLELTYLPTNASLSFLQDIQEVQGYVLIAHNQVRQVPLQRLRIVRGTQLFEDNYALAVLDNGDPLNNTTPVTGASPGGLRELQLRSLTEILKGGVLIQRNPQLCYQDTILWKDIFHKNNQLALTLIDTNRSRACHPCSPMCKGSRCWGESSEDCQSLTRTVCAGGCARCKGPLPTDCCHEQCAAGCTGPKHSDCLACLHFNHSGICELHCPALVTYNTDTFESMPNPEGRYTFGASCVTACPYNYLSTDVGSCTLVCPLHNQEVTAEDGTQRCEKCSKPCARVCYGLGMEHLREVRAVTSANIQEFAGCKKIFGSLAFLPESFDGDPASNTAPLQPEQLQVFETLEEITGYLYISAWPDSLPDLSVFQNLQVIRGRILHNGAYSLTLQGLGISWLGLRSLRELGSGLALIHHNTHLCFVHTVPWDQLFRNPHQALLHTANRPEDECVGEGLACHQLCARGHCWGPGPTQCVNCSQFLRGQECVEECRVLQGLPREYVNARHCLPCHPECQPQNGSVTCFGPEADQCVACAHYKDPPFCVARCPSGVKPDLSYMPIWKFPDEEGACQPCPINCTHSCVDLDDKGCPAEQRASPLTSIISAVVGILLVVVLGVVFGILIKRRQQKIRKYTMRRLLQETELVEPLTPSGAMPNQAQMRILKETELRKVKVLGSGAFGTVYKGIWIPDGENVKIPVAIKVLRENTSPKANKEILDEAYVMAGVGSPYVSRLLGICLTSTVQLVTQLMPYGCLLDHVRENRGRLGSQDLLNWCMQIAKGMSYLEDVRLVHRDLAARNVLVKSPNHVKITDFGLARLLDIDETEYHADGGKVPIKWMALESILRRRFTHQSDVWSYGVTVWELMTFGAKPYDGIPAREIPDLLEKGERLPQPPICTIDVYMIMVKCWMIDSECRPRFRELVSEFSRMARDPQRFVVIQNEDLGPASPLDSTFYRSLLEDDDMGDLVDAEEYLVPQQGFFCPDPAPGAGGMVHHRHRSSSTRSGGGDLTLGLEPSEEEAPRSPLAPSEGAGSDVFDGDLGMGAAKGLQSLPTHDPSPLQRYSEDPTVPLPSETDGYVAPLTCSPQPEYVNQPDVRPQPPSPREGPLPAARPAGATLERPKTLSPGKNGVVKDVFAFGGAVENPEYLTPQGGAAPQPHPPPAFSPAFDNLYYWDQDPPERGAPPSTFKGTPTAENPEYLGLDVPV

Row | Structure (SMILES) | IC50 [1] | IC50 [2] | IC50 [3] | IC50 [4]
1 | Cc1c(C(=O)NCCN2CCOCC2)[nH]c2cnnc(Nc3ccc(OCc4cccc(F)c4)c(Cl)c3)c12 | 5 µM | > 5000 nM | 12700 nM | 4 nM
2 | Cc1c(C(=O)NCCCN2CCN(C)CC2)[nH]c2cnnc(Nc3ccc(OCc4cccc(F)c4)c(Cl)c3)c12 | > 10 µM | 2240 nM | 980 nM | 
3 | CCN(CC)CCNC(=O)c1cc2cnnc(Nc3ccc(OCc4cccc(F)c4)c(Cl)c3)c2[nH]1 | > 10 µM | 3840 nM | 77200 nM | 
4 | Cc1c(C(=O)NCCN2CCOCC2)[nH]c2cnnc(Nc3ccc(OCc4ccccn4)c(Cl)c3)c12 |  | > 5000 nM |  | 

Stronger by IC50 [2], values ahead:

Row | IC50 [1] | IC50 [2] | IC50 [3] | IC50 [4] | Structure (SMILES)
5 | 1.28 µM | 960 nM | 1160 nM | 7 nM | CCN(CC)CCNC(=O)c1[nH]c2cnnc(Nc3ccc(OCc4cccc(F)c4)c(Cl)c3)c2c1C
6 | > 10 µM | 934 nM | 1210 nM |  | CCOC(=O)c1[nH]c(C)c2cnnc(Nc3ccc(OCc4cccc(F)c4)c(Cl)c3)c12
7 | > 10 µM | 843 nM | 257 nM |  | Cc1c(C(=O)NCCN2CCN(C)CC2)[nH]c2cnnc(Nc3ccc(OCc4cccc(F)c4)c(Cl)c3)c12
8 | > 10 µM | 620 nM | 15100 nM |  | O=C(NCCN1CCCC1)c1cc2cnnc(Nc3ccc(OCc4cccc(F)c4)c(Cl)c3)c2[nH]1
